Active and inactive are the calls of the source. The calls are words filed in the database; no cut-off is given here.
How the values were obtained:
Rattus norvegicus [1] = experiment: Hepatoprotective activity in Rattus norvegicus Wistar albino (rat) assessed as reduction in CCl4-induced hepatocyte injury at 50 mg/kg, po administered QD for 6 days measured on day 8 by hematoxylin and eosin staining-based microscopic analysis; assay type: functional, organism-based; parameters: dose 50 mg/kg
Rattus norvegicus [2] = experiment: Hepatoprotective activity against CCl4-induced toxicity in Rattus norvegicus Wistar albino (rat) assessed as normal parenchyma at 50 mg/kg, po administered QD for 6 days measured on day 8 by hematoxylin and eosin staining-based microscopic analysis; assay type: functional, organism-based; parameters: dose 50 mg/kg
Rattus norvegicus [3] = experiment: Hepatoprotective activity against CCl4-induced toxicity in Rattus norvegicus Wistar albino (rat) assessed as total albumin level at 50 mg/kg, po administered QD for 6 days measured on day 8 (reference value: 2.33 +/- 0.18 g/dl); assay type: functional
Rattus norvegicus [4] = experiment: Hepatoprotective activity against CCl4-induced toxicity in Rattus norvegicus Wistar albino (rat) assessed as clear central vein at 50 mg/kg, po administered QD for 6 days measured on day 8 by hematoxylin and eosin staining-based microscopic analysis; assay type: functional, organism-based; parameters: dose 50 mg/kg
Rattus norvegicus [5] = experiment: Hepatoprotective activity in Rattus norvegicus Wistar albino (rat) assessed as reduction in CCl4-induced fatty accumulation at 50 mg/kg, po administered QD for 6 days measured on day 8 by hematoxylin and eosin staining-based microscopic analysis; assay type: functional, organism-based; parameters: dose 50 mg/kg
Rattus norvegicus [6] = experiment: Hepatoprotective activity in Rattus norvegicus Wistar albino (rat) assessed as reduction in CCl4-induced increase in SGOT level at 50 mg/kg, po administered QD for 6 days measured on day 8 by colorimetric analysis relative to ocntrol; assay type: functional; parameters: scale not given: the % may be the effect or the level left
Rattus norvegicus [7] = experiment: Hepatoprotective activity in Rattus norvegicus Wistar albino (rat) assessed as reduction in CCl4-induced increase in SGPT level at 50 mg/kg, po administered QD for 6 days measured on day 8 by colorimetric analysis relative to control; assay type: functional; parameters: scale not given: the % may be the effect or the level left
Rattus norvegicus [8] = experiment: Hepatoprotective activity in Rattus norvegicus Wistar albino (rat) assessed as reduction in CCl4-induced increase in alkaline phosphatase level at 50 mg/kg, po administered QD for 6 days measured on day 8 relative to control; assay type: functional; parameters: scale not given: the % may be the effect or the level left
Rattus norvegicus [9] = experiment: Hepatoprotective activity in Rattus norvegicus Wistar albino (rat) assessed as increase in CCl4-induced reduction in total protein level at 50 mg/kg, po administered QD for 6 days measured on day 8 relative to control; assay type: functional; parameters: scale not given: the % may be the effect or the level left
Rattus norvegicus [10] = experiment: Hepatoprotective activity against CCl4-induced toxicity in Rattus norvegicus Wistar albino (rat) assessed as normal portal triad at 50 mg/kg, po administered QD for 6 days measured on day 8 by hematoxylin and eosin staining-based microscopic analysis; assay type: functional, organism-based; parameters: dose 50 mg/kg
Rattus norvegicus [11] = experiment: Hepatoprotective activity in Rattus norvegicus Wistar albino (rat) assessed as reduction in CCl4-induced lymphocytic infiltration at 50 mg/kg, po administered QD for 6 days measured on day 8 by hematoxylin and eosin staining-based microscopic analysis; assay type: functional, organism-based; parameters: dose 50 mg/kg
Rattus norvegicus [12] = experiment: Hepatoprotective activity in Rattus norvegicus Wistar albino (rat) assessed as reduction in CCl4-induced necrosis at 50 mg/kg, po administered QD for 6 days measured on day 8 by hematoxylin and eosin staining-based microscopic analysis; assay type: functional, organism-based; parameters: dose 50 mg/kg

In the case of COc1c2ccoc2c(OC/C=C(\C)CC2C=C(C)C(=O)O2)c2oc(=O)ccc12 (configuration not stated) [FEROLACTONE], the Activity (Rattus norvegicus [1]) is reported as “Active”, the Activity (Rattus norvegicus [2]) is reported as “Active” and the Activity (Rattus norvegicus [3]) is reported as 3.44 g/dL. For the same compound, the Activity (Rattus norvegicus [4]) was “Active”, the Activity (Rattus norvegicus [5]) was “Active” and the Activity (Rattus norvegicus [6]) was 43.44%. It also gave an Activity (Rattus norvegicus [7]) of 39.63%, an Activity (Rattus norvegicus [8]) of 41.16% and an Activity (Rattus norvegicus [9]) of 36.15%. The Activity (Rattus norvegicus [10]) was “Active”, the Activity (Rattus norvegicus [11]) was “Active” and the Activity (Rattus norvegicus [12]) was “Active”.

Source: ChEMBL document CHEMBL3044793, “Antihepatotoxic activity of ferolactone, a new furanocoumarin from Feronia limonia” (2012)
